# From patent publication US20130280188A1, “SELF-TANNING COSMETIC” (KAO CORPORATION, priority 2012, published 2013)
# Key:
# [1] = biological target: T1, olfactory receptor OR5K1 (Homo sapiens, UniProt Q8NHB7); assay: Luciferase reporter gene assay of olfactory receptor response in HEK293 cells; assay type: cell-based; settings: for Concentration-dependent response of OR5K1: 0, 3, 10, 30, 100, 300, and 1000 μM, HEK293 cells with RTP1S variant, FIG. 5
# T1 construct: expressed in transfected cells; host or cells: HEK293
# T1 sequence (Q8NHB7 1-308): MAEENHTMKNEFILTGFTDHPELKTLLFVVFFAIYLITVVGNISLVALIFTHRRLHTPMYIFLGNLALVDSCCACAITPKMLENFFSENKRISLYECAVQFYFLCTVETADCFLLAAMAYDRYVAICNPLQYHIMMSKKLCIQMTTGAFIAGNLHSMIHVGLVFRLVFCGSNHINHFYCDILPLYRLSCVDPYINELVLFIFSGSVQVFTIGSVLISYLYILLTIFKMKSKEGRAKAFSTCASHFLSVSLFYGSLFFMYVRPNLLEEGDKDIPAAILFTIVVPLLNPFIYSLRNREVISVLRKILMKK
# Description: Human olfactory receptors were cloned based on sequence information registered in GenBank by PCR using human genomic DNA female (G1521: Promega Corporation) as a template. Each gene amplified by FCR was incorporated into pENTR vector (Invitrogen Inc.) in accordance with the manual and recombined to the NotI and AscI sites located downstream of a Flag-Rho tag sequence in a pME18S vector using the NotI and AscI sites present on the pENTR vector.
# An RTP1S variant gene (SEQ ID NO: 3) encoding an RTP1S variant (SEQ ID NO: 4) was incorporated into the EcoRI and XhoI sites of a pME18S vector.
# HEK293 cells expressing 373 types of human olfactory receptors were produced. A reaction solution having a composition shown in Table 2 was prepared, left to stand in a clean bench for 15 min and then was dispensed in each well of a 96 well plate (Becton, Dickinson and Company). Subsequently, HEK293 cells (100 μL, 3×10^5 cells/cm^2) were seeded in each well and cultured in an incubator at 37° C. under 5 mass % CO2 for 24 hours.
# An olfactory receptor expressed in HEK293 cells couples with endogenous Gas in the cells to activate adenylate cyclase and thereby increases the amount of intracellular cAMP. In this study, the odor response was measured by luciferase reporter gene assay which monitors an increase in amount of intracellular cAMP as the luminescence value derived from a firefly luciferase gene (fluc2P-CRE-hygro). A Renilla luciferase gene was fused with the downstream of a CMV promoter (hRluc-CMV) and was also introduced to HEK293 cells as an internal standard to correct errors in gene transfer efficiency and number of cells.
# The culture medium was removed from the culture produced in the above 3), and 75 μL of a solution prepared with a CD293 medium (Invitrogen Inc.) so as to contain a pyrazine derivative (1 mM 2,6-dimethylpyrazine) was added thereto. The cells were cultured in a CO2 incubator for 2.5 hours to sufficiently express the luciferase gene in the cells. The luciferase activity was measured with a Dual-Glo™ luciferase assay system (Promega Corporation) in accordance with the operating manual of the system. The fold increases were calculated by dividing the luminescence value derived from firefly luciferase induced by stimulation with the odor substances by the luminescence value in cells not stimulated with the odor substances and were used as an index of response strength.
# Olfactory receptor OR5K1 (SEQ ID NO: 2) was expressed in HEK293 cells together with an RTP1S variant (SEQ ID NO: 4) by the same procedure as in Test Example 3, and the dependency of the response on the concentration (0, 3, 10, 30, 100, 300, and 1000 μM) in various pyrazine compounds was investigated. The pyrazine compounds used in this Example were pyrazine and pyrazine derivatives selected from the group consisting of 2-methylpyrazine, 2,3-dimethylpyrazine, 2,5-dimethylpyrazine, 2,3,5-trimethylpyrazine, 2,3,5,6-tetramethylpyrazine, and 2-ethylpyrazine.
# [2] = biological target: T1, olfactory receptor OR5K1; assay: Antagonist activity against OR5K1 response to 2,6-dimethylpyrazine (luciferase assay, HEK293 cells); assay type: cell-based; settings: HEK293 cells expressing OR5K1; for Receptor response-inhibiting rate: 2,6-dimethylpyrazine 1 mM and test material 300 μM (cytotoxic perfumes: 333 μM and 100 JAM); for Antagonist activity on the response of OR5K1 to pyrazine derivatives: 2,6-dimethylpyrazine 1 mM and test material 300 μM
# Description: Antagonist activities of 174 test materials against olfactory receptor OR5K1 were investigated by examining response of OR5K1 to a pyrazine derivative.
# 2,6-Dimethylpyrazine (1 mM) and each of the test materials (300 μM) were added to HEK293 cells expressing olfactory receptor OR5K1 by the same procedure as in Test Example 4, and the response of the olfactory receptor to 2,6-dimethylpyrazine was measured to evaluate a change in response of the receptor due to addition of the test material. Perfumes recognized to have cytotoxicity were re-evaluated using a mixture of 333 μM of 2,6-dimethylpyrazine and 100 JAM of a test material.
# The receptor response-inhibiting rate of a test material was calculated as follows. The receptor activity (X−Y) by stimulation with 2,6-dimethylpyrazine alone was determined by subtracting the luminescence value (Y) in cells to which the receptor was introduced but were not stimulated with 2,6-dimethylpyrazine from the luminescence value (X) derived from firefly luciferase induced by odor stimulation with 2,6-dimethylpyrazine alone. Similarly, the receptor activity (Z−Y) in the presence of a test material was determined by subtracting the luminescence value (Y) in cells not stimulated with 2,6-dimethylpyrazine from the luminescence value (Z) stimulated with a mixture of 2,6-dimethylpyrazine and the test material. The reduction rate of the receptor activity (Z−Y) in the presence of a test material to the receptor activity (X−Y) by stimulation with 2,6-dimethylpyrazine alone was calculated by the following computation expression:
# Inhibition rate (%)={1−(Z−Y)/(X−Y)}×100,
# to determine the receptor response-inhibiting rate of the test material. In the measurement, multiple independent experiments were performed in duplicate, and the average of each experiment was used.
Concentration-dependent response of OR5K1 [1],"Response of olfactory receptor OR5K1 ([1]; 1 mM, screen of 373 types of human olfactory receptors in HEK293 cells, FIG. 4)",Antagonist activity on the response of OR5K1 to pyrazine derivatives [2],Compound,Receptor response-inhibiting rate [2]
concentration-dependently responded,,,"Cc1nc(C)c(C)nc1C [2,3,5,6-tetramethylpyrazine]",
concentration-dependently responded,,,"Cc1cnc(C)c(C)n1 [2,3,5-trimethylpyrazine]",
concentration-dependently responded,,,"Cc1cnc(C)cn1 [2,5-Dimethyl pyrazine, 2,5-dimethylpyrazine]",
concentration-dependently responded,responded,,"Cc1cncc(C)n1 [2,6-Dimethyl pyrazine, 2,6-dimethylpyrazine]",
concentration-dependently responded,,,"Cc1cnccn1 [2-Methyl pyrazine, 2-methylpyrazine]",
,,antagonist activity,"CCC(=CCC1CC=C(C)C1(C)C)CO (stereo not drawn) [Bangalol, 2-ethyl-4-(2,2,3-trimethyl-3-cyclopenten-1-yl)-2-buten-1-ol]",75% or more
,,antagonist activity,"CC(C=O)Cc1ccc(C(C)C)cc1 (stereo not drawn) [Cyclamen aldehyde, 2-methyl-3-(4-iso-propylphenyl)propanal]",75% or more
,,no antagonist activity,"CC(C)CC1CC(C)(O)CCO1 (stereo not drawn) [Florosa, 4-methyl-2-(2-methylpropyl)tetrahydro-2H-4-pyranol]",Not inhibited
,,no antagonist activity,"CCCCCC1C(=O)CCC1CC(=O)OC (stereo not drawn) [Methyl dihydrojasmonate, methyl dihydrojasmonate]",Not inhibited
,,antagonist activity,"CCC=C(C)C(O)CCCCC (stereo not drawn) [Undecavertol, 4-methyl-3-decen-5-ol]",75% or more
did not respond,,,c1cnccn1 [pyrazine],

Compound,Concentration-dependent response of OR5K1 [1],"Response of olfactory receptor OR5K1 ([1]; 1 mM, screen of 373 types of human olfactory receptors in HEK293 cells, FIG. 4)",Antagonist activity on the response of OR5K1 to pyrazine derivatives [2],Receptor response-inhibiting rate [2]
"Cc1nccnc1C [2,3-dimethylpyrazine]",concentration-dependently responded,,,
CCc1cnccn1 [2-ethylpyrazine],concentration-dependently responded,,,
"CC(=O)CCc1ccc(O)cc1 [Raspberry ketone, 4-(p-hydroxyphenyl)-2-butanone]",,,no antagonist activity,Not inhibited
